Experiments:
Type in all cases: cell-based
H. influenzae = experiment: MIC of clinical trial isolates, Studies 373, 433, 434; details: Haemophilus influenzae, all phenotypes, N 344
Procedure: (§1) PFGE testing was performed per standard procedures.
(§2) The antibacterial susceptibility profile of each Visit 1 bacterial isolate was determined for besifloxacin and other antimicrobials.

S. pneumoniae = experiment: as above; details: Streptococcus pneumoniae, all phenotypes, N 302
Procedure: as §1, §2

S. mitis group = experiment: as above; details: Streptococcus mitis group, N 45
Procedure: as §1, §2

Streptococcus oralis = experiment: as above; details: N 18
Procedure: as §1, §2

CDC coryneform group G = experiment: as above; details: N 29
Procedure: as §1, §2

[1] = test system: Corynebacterium pseudodiphtheriticum; experiment: as above; details: N 8
Corynebacterium striatum = experiment: as above; details: N 8
Streptococcus salivarius = experiment: as above; details: N 9
[2] = test system: baseline pathogens of bacterial conjunctivitis patients; experiment: MIC of baseline clinical trial isolates, Studies 373, 433, 434 (all species)
Streptococcus mitis = experiment: MIC of clinical trial isolates, Studies 373, 433, 434; details: Streptococcus mitis (listed separately from S. mitis group), N 20
Procedure: PFGE testing was performed per standard procedures. […] Analysis Populations

Staphylococcus hominis = experiment: as above; details: N 9
S. aureus = experiment: as above; details: Staphylococcus aureus, all phenotypes, N 190
[3] = test system: Staphylococcus lugdunensis; experiment: as above; details: N 8
S. epidermidis = experiment: as above; details: Staphylococcus epidermidis, all phenotypes, N 111

Row | Compound | MIC50 (H. influenzae) [µg/mL] | MIC90 (H. influenzae) [µg/mL] | MIC90 (S. pneumoniae) [µg/mL] | MIC50 (S. mitis group) [µg/mL] | MIC90 (S. mitis group) [µg/mL] | MIC50 (Streptococcus oralis) [µg/mL] | MIC90 (Streptococcus oralis) [µg/mL] | MIC90 (CDC coryneform group G) [µg/mL] | MIC50 [1] [µg/mL] | MIC50 (Streptococcus salivarius) [µg/mL] | MIC50 ([2]; All organisms, N 1324) [µg/mL] | MIC90 ([2]; All organisms, N 1324) [µg/mL] | MIC50 ([2]; Gram-negative, N 438) [µg/mL] | MIC90 ([2]; Gram-negative, N 438) [µg/mL] | MIC50 ([2]; Gram-positive, N 886) [µg/mL] | MIC90 ([2]; Gram-positive, N 886) [µg/mL] | MIC50 (Streptococcus mitis) [µg/mL] | MIC90 (Streptococcus mitis) [µg/mL] | MIC Range (Streptococcus mitis) [µg/mL] | MIC50 (Staphylococcus hominis) [µg/mL] | other results
1 | C[C@H]1COc2c(N3CCN(C)CC3)c(F)cc3c(=O)c(C(=O)O)cn1c23 [LEVO] | 0.03 | 0.03 | 1 | 1 | 2 | 1 | 2 | 1 | 0.5 | 1 | 0.25 | 1 | 0.03 | 0.125 | 0.5 | 2 | 1 | 1 | 0.5 to 2 | 0.125 | MIC Range (H. influenzae): ≦0.004-1 μg/mL; MIC50 (S. pneumoniae): 0.5 µg/mL; MIC Range (S. pneumoniae): 0.125 to 2 µg/mL; MIC Range (Streptococcus oralis): 0.125 to 2 µg/mL; MIC50 (CDC coryneform group G): 0.06 µg/mL; MIC Range [1]: 0.06 to 1 µg/mL; MIC50 (Corynebacterium striatum): 0.06 µg/mL; MIC Range (Corynebacterium striatum): 0.03 to 4 µg/mL; MIC Range (Streptococcus salivarius): 1 to 2 µg/mL; MIC Range ([2]; Gram-negative, N 438): ≦0.004-8 μg/mL; MIC Range (Staphylococcus hominis): 0.125 to 4 µg/mL; MIC50 (S. aureus): 0.25 µg/mL; MIC90 (S. aureus): 8 µg/mL; MIC50 [3]: 0.25 µg/mL; MIC Range [3]: 0.25 to 2 µg/mL; MIC50 (S. epidermidis): 0.25 µg/mL; MIC90 (S. epidermidis): 8 µg/mL
2 | CC[C@H]1OC(=O)[C@H](C)[C@@H](O[C@H]2C[C@@](C)(OC)[C@@H](O)[C@H](C)O2)[C@H](C)[C@@H](O[C@@H]2O[C@H](C)C[C@H](N(C)C)[C@H]2O)[C@](C)(O)C[C@@H](C)CN(C)[C@H](C)[C@@H](O)[C@]1(C)O [AZITH] | 2 | 4 | >8 | 2 | 8 | 4 | >8 | >8 | >8 | 8 | 2 | >8 | 2 | >8 | 1 | >8 | 2 | 4 | 0.06 to 8 | 4 | MIC50 (S. aureus): 2 µg/mL; MIC90 (S. aureus): >8 µg/mL; MIC50 [3]: 0.5 µg/mL; MIC50 (S. epidermidis): 1 µg/mL; MIC90 (S. epidermidis): >8 µg/mL

— patent US8415342B2, “Besifloxacin ophthalmic composition for the treatment or control of infection” (Bausch & Lomb Incorporated, priority 2008, dated 2013)
